For orientation: IC50 means the concentration needed to halve the response being measured. The low end stands for higher potency, the high end for lower potency.

For one molecule, IC50 results are on record in ChEMBL document CHEMBL1129109, “Synthesis of cystamidin a (pyrrole-3-propanamide), a reported calpain inhibitor” (Bioorg Med Chem Lett, 1996).

The target in the assay is T1, Calpain-1 catalytic subunit (Homo sapiens, UniProt P07384).
T1 sequence (P07384 whole entry): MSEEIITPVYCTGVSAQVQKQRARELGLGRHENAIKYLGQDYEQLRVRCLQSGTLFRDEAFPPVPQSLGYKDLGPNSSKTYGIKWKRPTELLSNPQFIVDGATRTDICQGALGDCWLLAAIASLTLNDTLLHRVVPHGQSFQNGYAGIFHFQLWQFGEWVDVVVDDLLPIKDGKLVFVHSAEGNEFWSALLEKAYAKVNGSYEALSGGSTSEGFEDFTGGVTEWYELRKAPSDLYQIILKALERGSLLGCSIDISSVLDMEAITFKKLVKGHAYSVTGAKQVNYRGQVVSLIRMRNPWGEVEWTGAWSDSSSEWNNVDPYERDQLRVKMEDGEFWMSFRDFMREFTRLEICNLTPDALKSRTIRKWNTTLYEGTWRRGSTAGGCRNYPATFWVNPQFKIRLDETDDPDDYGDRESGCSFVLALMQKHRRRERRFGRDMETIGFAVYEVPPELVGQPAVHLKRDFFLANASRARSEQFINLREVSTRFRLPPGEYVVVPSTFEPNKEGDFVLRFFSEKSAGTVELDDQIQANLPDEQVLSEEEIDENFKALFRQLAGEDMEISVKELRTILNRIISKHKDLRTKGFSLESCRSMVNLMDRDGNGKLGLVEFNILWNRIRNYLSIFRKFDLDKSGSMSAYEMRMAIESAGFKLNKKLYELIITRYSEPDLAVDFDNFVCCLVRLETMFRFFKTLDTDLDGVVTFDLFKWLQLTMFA
Briefly: Inhibitory activity against calpain.

Molecule `NC(=O)CCc1cc[nH]c1` showed an IC50 of 1400 nM.
